Results as given in BindingDB's records for doi:10.1124/jpet.104.081539 (Kyowa Hakko Kogyo, 2005).

How the values were obtained:
[1] = target: T1, Polyunsaturated fatty acid 5-lipoxygenase (Homo sapiens, UniProt P09917)
T1 sequence (P09917 whole entry): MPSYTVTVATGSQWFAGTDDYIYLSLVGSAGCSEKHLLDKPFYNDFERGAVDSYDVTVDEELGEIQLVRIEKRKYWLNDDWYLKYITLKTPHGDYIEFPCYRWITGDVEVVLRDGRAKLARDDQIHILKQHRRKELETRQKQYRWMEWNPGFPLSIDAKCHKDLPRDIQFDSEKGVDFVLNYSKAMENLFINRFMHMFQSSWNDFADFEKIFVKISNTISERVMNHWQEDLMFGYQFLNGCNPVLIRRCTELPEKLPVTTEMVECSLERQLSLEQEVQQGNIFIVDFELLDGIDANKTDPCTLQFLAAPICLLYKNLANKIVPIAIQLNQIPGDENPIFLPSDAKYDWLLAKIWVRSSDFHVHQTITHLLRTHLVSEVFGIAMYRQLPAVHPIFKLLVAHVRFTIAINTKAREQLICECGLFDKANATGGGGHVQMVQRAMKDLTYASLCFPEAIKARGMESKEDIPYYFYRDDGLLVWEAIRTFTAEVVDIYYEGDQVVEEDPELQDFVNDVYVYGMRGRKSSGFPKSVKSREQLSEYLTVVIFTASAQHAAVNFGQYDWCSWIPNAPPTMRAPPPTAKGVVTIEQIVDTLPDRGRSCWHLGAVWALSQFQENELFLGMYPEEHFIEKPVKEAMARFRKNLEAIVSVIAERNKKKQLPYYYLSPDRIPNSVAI

[2] = target: Leukotriene B4 receptor 1 (Homo sapiens) (UniProt Q15722)
[3] = target: Prostaglandin G/H synthase 1 (Homo sapiens, UniProt P23219)
[4] = target: T2, Prostaglandin G/H synthase 2 (Homo sapiens, UniProt P35354)
T2 sequence (P35354 whole entry): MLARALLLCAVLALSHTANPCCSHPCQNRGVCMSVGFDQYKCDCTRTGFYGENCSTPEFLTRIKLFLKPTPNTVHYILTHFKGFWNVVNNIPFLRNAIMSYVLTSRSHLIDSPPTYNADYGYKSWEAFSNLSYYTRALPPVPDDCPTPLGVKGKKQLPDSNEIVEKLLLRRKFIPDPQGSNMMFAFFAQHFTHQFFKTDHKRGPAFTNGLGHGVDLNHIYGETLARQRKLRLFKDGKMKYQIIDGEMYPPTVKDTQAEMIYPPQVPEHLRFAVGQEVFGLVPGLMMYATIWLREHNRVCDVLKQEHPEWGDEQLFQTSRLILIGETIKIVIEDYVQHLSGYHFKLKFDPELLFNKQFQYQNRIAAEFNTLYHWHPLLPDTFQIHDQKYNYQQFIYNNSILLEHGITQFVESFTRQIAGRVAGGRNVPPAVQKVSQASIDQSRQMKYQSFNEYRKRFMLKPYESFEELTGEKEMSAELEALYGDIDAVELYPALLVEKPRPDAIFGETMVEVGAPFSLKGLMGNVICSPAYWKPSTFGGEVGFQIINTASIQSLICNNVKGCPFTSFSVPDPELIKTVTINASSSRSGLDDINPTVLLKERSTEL

[5] = target: T3, Cysteinyl leukotriene receptor 1 (Homo sapiens, UniProt Q9Y271)
T3 sequence (Q9Y271 whole entry): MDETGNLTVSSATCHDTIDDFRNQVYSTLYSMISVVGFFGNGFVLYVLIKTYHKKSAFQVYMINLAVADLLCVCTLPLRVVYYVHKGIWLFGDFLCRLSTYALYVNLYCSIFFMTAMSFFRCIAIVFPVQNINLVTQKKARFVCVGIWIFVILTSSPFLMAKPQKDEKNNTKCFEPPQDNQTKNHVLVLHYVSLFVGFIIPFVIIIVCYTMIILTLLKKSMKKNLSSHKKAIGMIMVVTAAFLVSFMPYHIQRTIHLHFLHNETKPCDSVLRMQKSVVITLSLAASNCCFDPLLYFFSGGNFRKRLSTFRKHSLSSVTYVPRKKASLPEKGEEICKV

[6] = target: 5-hydroxytryptamine receptor 2A (Rattus norvegicus, UniProt P14842)
[7] = target: Histamine H1 receptor (Homo sapiens, UniProt P35367)
[8] = target: T4, Muscarinic acetylcholine receptor M1 (Homo sapiens, UniProt P11229)
T4 sequence (P11229 whole entry): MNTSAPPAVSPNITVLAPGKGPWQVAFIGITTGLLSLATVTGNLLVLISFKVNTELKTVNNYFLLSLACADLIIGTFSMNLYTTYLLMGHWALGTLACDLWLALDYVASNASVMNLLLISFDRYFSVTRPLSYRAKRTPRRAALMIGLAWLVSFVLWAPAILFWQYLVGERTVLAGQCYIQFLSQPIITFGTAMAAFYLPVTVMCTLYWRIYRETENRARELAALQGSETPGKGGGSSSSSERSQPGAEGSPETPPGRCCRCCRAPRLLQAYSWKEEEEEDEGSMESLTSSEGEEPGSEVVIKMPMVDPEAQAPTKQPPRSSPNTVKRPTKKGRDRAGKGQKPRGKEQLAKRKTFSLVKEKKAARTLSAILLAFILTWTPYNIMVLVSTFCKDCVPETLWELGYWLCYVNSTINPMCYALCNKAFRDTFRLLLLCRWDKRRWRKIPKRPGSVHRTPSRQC

[9] = target: T5, Thromboxane A2 receptor (Homo sapiens, UniProt P21731)
T5 sequence (P21731 whole entry): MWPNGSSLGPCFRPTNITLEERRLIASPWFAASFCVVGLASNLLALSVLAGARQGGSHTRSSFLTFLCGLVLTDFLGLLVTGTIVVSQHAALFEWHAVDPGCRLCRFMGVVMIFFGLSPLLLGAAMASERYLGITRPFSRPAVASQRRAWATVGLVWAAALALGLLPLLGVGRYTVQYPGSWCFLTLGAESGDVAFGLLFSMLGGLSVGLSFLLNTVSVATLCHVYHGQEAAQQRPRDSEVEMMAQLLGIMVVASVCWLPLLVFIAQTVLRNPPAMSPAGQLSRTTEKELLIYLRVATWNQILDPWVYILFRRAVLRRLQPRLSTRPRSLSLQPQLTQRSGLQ

Measured: Ki

5-hydroxytryptamine receptor 2A, sequence (P14842 whole entry): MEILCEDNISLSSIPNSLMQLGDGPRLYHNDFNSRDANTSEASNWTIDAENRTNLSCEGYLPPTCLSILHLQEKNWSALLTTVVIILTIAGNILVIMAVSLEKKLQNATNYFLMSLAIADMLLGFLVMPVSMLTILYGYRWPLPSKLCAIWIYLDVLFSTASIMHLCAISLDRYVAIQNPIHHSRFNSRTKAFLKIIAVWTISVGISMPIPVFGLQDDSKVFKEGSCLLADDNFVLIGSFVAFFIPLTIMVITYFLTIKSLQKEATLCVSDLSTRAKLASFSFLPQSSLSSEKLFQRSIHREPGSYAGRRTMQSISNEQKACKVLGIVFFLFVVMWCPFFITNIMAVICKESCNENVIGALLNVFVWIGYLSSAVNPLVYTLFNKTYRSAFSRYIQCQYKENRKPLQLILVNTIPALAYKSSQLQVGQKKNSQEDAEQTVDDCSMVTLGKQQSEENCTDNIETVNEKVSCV
Prostaglandin G/H synthase 1, sequence (P23219 whole entry): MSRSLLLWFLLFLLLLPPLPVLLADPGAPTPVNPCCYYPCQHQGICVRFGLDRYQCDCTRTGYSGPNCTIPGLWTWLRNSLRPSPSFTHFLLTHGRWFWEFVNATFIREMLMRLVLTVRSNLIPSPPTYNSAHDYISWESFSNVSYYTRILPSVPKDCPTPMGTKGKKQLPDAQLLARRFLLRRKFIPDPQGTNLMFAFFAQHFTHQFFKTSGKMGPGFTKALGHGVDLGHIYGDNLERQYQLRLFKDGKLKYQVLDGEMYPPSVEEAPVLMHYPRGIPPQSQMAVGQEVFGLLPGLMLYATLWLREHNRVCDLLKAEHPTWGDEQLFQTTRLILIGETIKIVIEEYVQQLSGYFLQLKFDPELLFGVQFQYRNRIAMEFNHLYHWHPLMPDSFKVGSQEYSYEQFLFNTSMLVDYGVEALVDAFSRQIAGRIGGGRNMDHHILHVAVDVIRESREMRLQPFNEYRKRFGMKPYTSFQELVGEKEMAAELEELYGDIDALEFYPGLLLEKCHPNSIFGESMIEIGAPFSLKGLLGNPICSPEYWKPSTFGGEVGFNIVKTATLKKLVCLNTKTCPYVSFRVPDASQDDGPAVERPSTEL
Leukotriene B4 receptor 1 (Homo sapiens), sequence (Q15722 whole entry, looked up): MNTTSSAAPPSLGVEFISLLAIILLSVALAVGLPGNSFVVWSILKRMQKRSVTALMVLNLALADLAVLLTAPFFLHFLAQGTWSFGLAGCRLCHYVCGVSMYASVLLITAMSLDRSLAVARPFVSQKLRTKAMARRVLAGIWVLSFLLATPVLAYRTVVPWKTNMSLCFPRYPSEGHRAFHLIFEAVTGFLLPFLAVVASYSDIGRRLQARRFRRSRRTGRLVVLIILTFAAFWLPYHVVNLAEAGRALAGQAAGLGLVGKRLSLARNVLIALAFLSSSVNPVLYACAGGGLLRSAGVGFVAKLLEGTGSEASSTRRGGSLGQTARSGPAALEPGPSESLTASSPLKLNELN
Histamine H1 receptor, sequence (P35367 whole entry): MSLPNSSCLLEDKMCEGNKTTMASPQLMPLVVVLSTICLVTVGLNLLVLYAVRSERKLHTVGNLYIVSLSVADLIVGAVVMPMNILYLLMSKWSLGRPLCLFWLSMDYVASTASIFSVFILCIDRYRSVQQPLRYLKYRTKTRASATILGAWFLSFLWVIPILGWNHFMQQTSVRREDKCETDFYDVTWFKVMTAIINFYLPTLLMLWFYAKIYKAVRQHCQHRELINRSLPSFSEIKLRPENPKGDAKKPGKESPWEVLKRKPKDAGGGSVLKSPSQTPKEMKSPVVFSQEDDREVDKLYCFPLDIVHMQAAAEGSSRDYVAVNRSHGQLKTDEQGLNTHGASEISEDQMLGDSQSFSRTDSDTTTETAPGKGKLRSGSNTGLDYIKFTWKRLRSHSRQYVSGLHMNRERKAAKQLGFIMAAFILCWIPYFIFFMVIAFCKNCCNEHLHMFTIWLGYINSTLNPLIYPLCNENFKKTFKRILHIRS

CC(C)C(=O)N(c1ccccc1)C1CC(C)N(C(=O)c2ccccc2)c2ccccc21 (configuration not stated) [K117]
> 1000 nM: [1] | [2] | [3] | [4] | [5] | [6] | [7] | [8] | [9]

CCC(=O)N1c2ccccc2C(N(C(C)=O)c2ccccc2)CC1C (configuration not stated) [K376]
> 1000 nM: [1] | [2] | [3] | [4] | [5] | [6] | [7] | [8] | [9]

CC1CC(N(C(=O)C2CC2)c2ccccc2)c2ccccc2N1C(=O)c1ccccc1 (configuration not stated) [K604]
> 1000 nM: [1] | [2] | [3] | [4] | [5] | [6] | [7] | [8] | [9]
